From patent US4585877A, “Process for preparing 1,8-diethyl-1,3,4,9-tetrahydropyrano(3,4-b)-indole-1-acetic acid, etodolac” (American Home Products Corporation, priority 1985, dated 1986)
Where two headings read alike, the source gives them in different places.

Legend:
[1] = system: Phenylquinone-induced writhing; assay: Effects on Phenylquinone-Induced Writhing in Mice test (analgesic activity); format: in vivo; details: Mus musculus, po, read-out: antinociceptive ED50
adjuvant edema = assay: Preventive Adjuvant Edema test (antiinflammatory activity); format: in vivo; details: po

| Structure (SMILES) | ED50 ([1]; Phenylquinone-induced writhing in mice, p.o.) [mg/kg] | ED50 (adjuvant edema; Preventive Adjuvant-Edema, p.o., read-out: ED50) [mg/kg] | ED50 [1] [mg/kg] | ED50 (adjuvant edema) [mg/kg] |
| --- | --- | --- | --- | --- |
| CCc1cccc2c3c([nH]c12)C(CC)(CC(=O)O)OCC3 (stereo not shown) [etodolac, 1,8-Diethyl-1,3,4,9-tetrahydropyrano[3,4-b]indole-1-acetic Acid] | 154 | 4 | – | – |
| CC(=O)Oc1ccccc1C(=O)O [aspirin] | – | – | 54 | 184 |
